Reference: paper PMC5340040 (BMC Biochemistry, 2017)
No end group written: not given here.

Key:
[1] = biological target: T1, MgF-actin (Oryctolagus cuniculus, UniProt P68135); assay: Extent of F-actin bundling by low speed centrifugation; format: biochemical, rabbit
T1 construct: MgF-actin was polymerized from CaATP-G-actin by 30 min incubation with 2 mM MgCl2 at 22 °C; tissue Pel-Freez Biologicals (Rogers, AR) (acetone powder); host or cells: rabbit back and leg skeletal muscle
Description: CaATP-G-actin was stored in a buffer containing 5 mM TrisHCl, 0.2 mM CaCl2, 0.2 mM ATP, 0.5 mM β-mercaptoethanol, pH 8.0 (CaATP-G-buffer). MgF-actin was polymerized from CaATP-G-actin by 30 min incubation with 2 mM MgCl2 at 22 °C. MgF-actin was diluted for further treatments in MgF-buffer containing 5 mM 3-(N-morpholino) propanesulfonic acid (MOPS), 2 mM MgCl2, 0.2 mM ATP and 0.5 mM DTT, pH 7.4. The concentration of G- and F-actin was determined using the extinction coefficient E^1% 290 = 11.5 cm-^1. (The optical density of actin was measured in the presence of 0.5 M NaOH, which shifts the maximum of absorbance from 280 to 290 nm).
Extent of actin polymerization and bundling was measured by high speed centrifugation at 129,151 x g for 2 h and by low speed centrifugation at 20,800 x g for 8 min, respectively. The centrifugations were carried out at 4 °C. The supernatants were separated by 12% sodium dodecyl sulfate polyacrylamide electrophoresis (SDS−PAGE) and analyzed by densitometry using the TINA 2.07d software.
Bundling was carried out at low ionic strength. a and b bundling kinetics of 4 μM F-actin was followed by light scattering change as described in Methods. […] Upper panels quantitative evaluation of bundling, lower panels, representative SDS-PAGE of the supernatants
Effect of pH on bundling. […]

[2] = biological target: T1, MgF-actin; assay: Transglutaminase cross-linking to F-actin; format: binding, rabbit; settings: 22 °C; for effect of phalloidin on extent of F-actin cross-linking: 4 μM F-actin, 8 μM Fl-peptide, 8 μM phalloidin, 0.3 mg/ml TGase, 30 min
From the text: Lower panels are representative SDS-PAGE-s. […] Lower panel, SDS-PAGE visualized by fluorescence
Upper panel, quantitative evaluation of SDS-PAGE by densitometry. Lower panel Coomassie blue stained representative SDS-PAGE

[3] = system: TG-G-actin; assay: Cross-linking to TGase pretreated G-actin (TG-G-actin) vs G-actin; cross-linking site; format: binding, rabbit; settings: 4.5 μM Fl-histatin; for cross-linked product with TGase pretreated vs untreated G-actin: 4 μM G-actin or TG-G-actin, 0.3 mg/ml TGase, 30 min, 22 °C; for cross-linking site in the D-loop of G-actin: TG-G-actin (Gln41 blocked)
Description: Preparation of TG-G-actin: 108 μM CaATP-G-actin was incubated with 4 mg/ml TGase at 4 °C for 24 h. After cross-linking samples were run on SDS-PAGE and evaluated by densitometry. Upper panel quantitative evaluation of SDS-PAGE by densitometry. Lower panel representative SDS-PAGE visualized by Coomassie blue

[4] = system: subtilisin / trypsin digested G-actin; assay: Cross-linking to subtilisin or trypsin fragments of G-actin; format: binding, rabbit; settings: 4 μM G-actin, 6 μM Fl-histatin, 0.3 mg/ml TGase, 30 min, 22 °C; for cross-linking to subtilisin fragments (Asp1-Met47 N-terminal, Gly48-Phe375 C-terminal): 1.5 μg/ml subtilisin; for cross-linking to Tyr69-Arg372 C-terminal tryptic fragment: 20 μg/ml trypsin
Description: Trypsin and subtilisin digestions were stopped by 40 μg/ml STI and 1 mM PMSF, respectively. Samples were run on SDS-PAGE. Left, lanes visualized by Coomassie blue; right, lanes visualized by fluorescence, marked by (*). Legend: (a) actin; (b) trypsin digested actin; (c) trypsin digested actin cross-linked with Fl-histatin-3 or Fl-histatin-5; (d) subtilisin digested actin; (e) subtilisin digested actin cross-linked with Fl-histatin-3 or Fl-histatin-5; nf), actin cross-linked with Fl-histatin-3 or Fl-histatin-5. a Fl-histatin-3-actin fragments cross-linked bands; b Fl-histatin-5-actin fragments cross-linked bands. Lane M, molecular weight marker

[5] = system: G-actin; assay: Inhibition of TGase cross-linking to G-actin by NaCl, DNase1 and cofilin; format: binding, rabbit; settings: 6 μM Fl-histatin, 4 μM G-actin; for effect of NaCl on cross-linking to G-actin: 0.3 mg/ml TGase, 1 min
Description: Here we studied the effect of these agents on the cross-link formation between G-actin and histatins. In these experiments NaCl, histatins, TGase were added simultaneously to G-actin and incubated for 1 min only to avoid significant actin polymerization.
Samples were treated with TGase for 1 min. Upper panel, evaluation of SDS-PAGE. Lower panel, representative SDS-PAGE visualized by Coomassie blue. b Inhibition of cross-linking by DNase1 and cofilin. Samples were treated with TGase for 5 min

[6] = system: CaATP-G-actin; settings: 22 °C
Description: The reaction was stopped by addition of 1 mM cysteamine. Samples were subjected to 12% SDS-PAGE, visualized by Coomassie blue or fluorescence and evaluated by densitometry.
Samples were treated with TGase at 22 °C for 30 and run on SDS-PAGE and evaluated by densitometry as described in Methods.
Cross-linking with 0.3 mg/ml TGase for 30 min at 22 °C. Upper panel, quantitative evaluation of SDS-PAGE by densitometry.

[7] = system: CaATP-G-actin (skeletal muscle); settings: ref [9]; cited from earlier work
Description: The pK of histidine is around pH 6.5 depending on the environment of the residue in the protein structure. This means that its charge changes with pH in the neutral pH region. Histidine is positively charged at slightly acidic pH and neutral above pH 7.0. Since actin polymerization is dependent on the number of positive charges of the polymerizing agent, the effect of pH 6.5, 7.4 and 8.2 on the polymerization of G-actin by histatins was measured (Fig. 1d).

[8] = system: CaATP-G-actin (skeletal muscle); assay: Actin polymerization, pyrene-actin fluorescence kinetics; format: biochemical, rabbit; settings: 4 μM CaATP-G-actin; 8 μM histatin-3, 20 μM histatin-5, 7 μM LL-37; pH 6.5, 7.4 and 8.2; 22 °C
Description: Labeling of Mg-F-actin at Cys-374 with pyrene maleimide was carried out according to Kouyama and Mihashi with some modifications. CaATP-G-actin was filtered through a PD-10 column (GE Healthcare) equilibrated with β-mercaptoethanol-free CaATP-G-buffer. After filtration, G-actin (1 mg/ml) was polymerized by 2 mM MgCl2 and 100 mM KCl at 22 °C for 30 min, and reacted with pyrene maleimide (16 μg/ml) on ice, for 1 h. The reaction was terminated with 1 mM DTT. Labeled F-actin was centrifuged at 129,151 x g for 2 h; the pellet was resuspended in Ca-ATP-G-buffer and depolymerized by dialyzing in this buffer for 36 h at 4 °C with twice changing the buffer. Finally, actin was centrifuged again at 129,151 x g for 2 h. […] The concentration of modified actin was determined by the procedure of Bradford using unmodified actin as a standard. The extent of labeling was determined by using pyrene extinction coefficient E344 nm = 22,000 cm^−1M^−1, was ~100%.
Actin polymerization was followed by fluorescence increase (at 365 nm excitation and 386 nm emission wavelengths) of pyrene-labeled G-actin [17], which was added to unlabeled G-actin in 10–15%. The kinetics of bundling of MgF−actin was monitored by increase in light scattering, with both excitation and emission wavelengths adjusted to 450 nm. All fluorescence and light scattering measurements were carried out at 22 °C. […]

[9] = system: actin; settings: cited from earlier work
From the text: Actin is a negatively charged structural protein and the most abundant protein in the eukaryotic cells. Actin, released from dead cells, is also present in the saliva. Actin has important roles in cytoskeleton formation, cell division, motility, adhesion, signaling and more. Actin exists in either monomer globular (G) or polymer filament (F) form, which are interconvertible into each other.

[10] = system: TG-G-actin; settings: ref [6]; cited from earlier work
From the text: TGase catalyzes covalent cross-linking of glutamine and lysine residues in proteins. Since in the histatin-G-actin cross-linking reaction only actin contains glutamine residues, it follows that actin should be the glutamine donor in this case. […] Gln41 seems to be the preferred candidate for this role sinc ...

[11] = system: F-actin bundles; settings: ref [9]; cited from earlier work
From the text: Both DNase1 and cofilin are actin binding proteins. DNase1 depolymerizes F-actin filament by binding to the protomer at the filaments ends and forming a tight complex with the protomer by attachment to its DNase1 binding loop (D-loop). […] Cofilin disassembles actin bundles by severing the filaments through its effect on the structure of actin protomers [[19] ...

[12] = system: CaATP-G-actin; settings: ref [6], cited from earlier work
From the text: Transglutaminase (TGase) catalyzes the formation of isopeptide bonds, which cross-links proximal glutamine and lysine residues in proteins. The TGase reaction produces both intramolecular cross-links in proteins and intermolecular cross-links between proteins and peptides.

[13] = system: G-actin; settings: ref [6]; cited from earlier work
[14] = 4 μM G- or F-actin, 8 μM histatin-3 or 6 μM LL-37, 0.4 mg/ml TGase

CC(C)C[C@H](NC(=O)[C@H](Cc1ccc(O)cc1)NC(=O)[C@H](CC(N)=O)NC(=O)[C@H](CO)NC(=O)[C@H](CCCNC(=N)N)NC(=O)[C@H](Cc1ccc(O)cc1)NC(=O)CNC(=O)[C@H](CCCNC(=N)N)NC(=O)[C@H](Cc1c[nH]cn1)NC(=O)[C@H](CO)NC(=O)[C@H](Cc1c[nH]cn1)NC(=O)[C@H](Cc1c[nH]cn1)NC(=O)[C@H](CCCCN)NC(=O)[C@H](CCC(=O)O)NC(=O)[C@H](Cc1c[nH]cn1)NC(=O)[C@H](Cc1ccccc1)NC(=O)[C@H](CCCCN)NC(=O)[C@H](CCCNC(=N)N)NC(=O)[C@H](CCCCN)NC(=O)[C@H](Cc1ccc(O)cc1)NC(=O)CNC(=O)[C@H](Cc1c[nH]cn1)NC(=O)[C@H](Cc1c[nH]cn1)NC(=O)[C@H](CCCNC(=N)N)NC(=O)[C@H](CCCCN)NC(=O)[C@H](C)NC(=O)[C@H](Cc1c[nH]cn1)NC(=O)[C@H](CO)NC(=O)[C@@H](N)CC(=O)O)C(=O)N[C@@H](Cc1ccc(O)cc1)C(=O)N[C@@H](CC(=O)O)C(=O)N[C@@H](CC(N)=O)C(=O)O [histatin-3]
EC50 [1]: 5 µM

Fl-LL-37: tetramethylrhodamine labeled LL-37
effect of phalloidin on extent of F-actin cross-linking [2]: reduces greatly

Fl-histatin-3: tetramethylrhodamine labeled histatin-3 (DSHAKRHHGYKRKFHEKHHSHRGYRSNYLYDN; also: tetramethylrhodamine label, position not given here)
cross-linked product with TGase pretreated vs untreated G-actin [3]: slightly less actin Fl-histatin-3 cross-linked products formed with TGase pretreated than with untreated G-actin | cross-linking site in the D-loop of G-actin [3]: Gln-49 is the main glutamine donor in the D-loop of actin | cross-linking to subtilisin fragments (Asp1-Met47 N-terminal, Gly48-Phe375 C-terminal) [4]: both fragments can be cross-linked | cross-linking to Tyr69-Arg372 C-terminal tryptic fragment [4]: can be also cross-linked | effect of NaCl on cross-linking to G-actin [5]: NaCl inhibited the cross-linking | effect of phalloidin on extent of F-actin cross-linking [2]: reduces greatly

Fl-histatin-5: FAM labeled histatin-5
quantity of cross-linked product with G-actin, comparison ([6]; 4 μM CaATP-G-actin, 4–8 μM Fl-histatin, 0.3 mg/ml TGase): consistently greater than that of Fl-histatin-3 | extent of cross-linking to both G- and F-actin, comparison ([6]; 4 μM G- and F-actin, 6 μM Fl-histatin, 0.3 mg/ml TGase): larger than that of Fl-histatin-3 | cross-linked product with TGase pretreated vs untreated G-actin [3]: the same amount of cross-linked product formed | cross-linking site in the D-loop of G-actin [3]: does not cross-link to Gln41 of G-actin | cross-linking to subtilisin fragments (Asp1-Met47 N-terminal, Gly48-Phe375 C-terminal) [4]: cross-linked only to the C- but not to the N-terminal G-actin fragment | cross-linking to Tyr69-Arg372 C-terminal tryptic fragment [4]: can be also cross-linked | effect of NaCl on cross-linking to G-actin [5]: NaCl inhibited the cross-linking | inhibitory effect of cofilin on cross-linking, comparison of peptides ([5]; cofilin, TGase 5 min): less Fl-histatin-5 than with Fl-histatin-3

LLGDFFRKSKEKIGKEFKRIVQRIKDFLRNLVPRTES [LL-37]
concentration at which G-actin is polymerized at neutral pH [7]: at about the same concentration as histatin-3 | cross-linking to G- and F-actin by TGase [6, 14]: cross-linked to both G- and F-actin like LL-37 | effect of pH on kinetics of actin polymerization [8]: much less pH-dependent than the polymerization by histatins | effect of pH on extent of F-actin bundling ([1]; 8 μM MgF-actin, 5 μM histatin-3, 12 μM histatin-5, 5 μM LL-37, pH 6.5, 7.3 and 8.2 (Fig. 2d), 3–16 μM histatins at pH 6.5 and 7.4 (Fig. S1)): contrary to the bundling by LL-37 | polymerization and bundling of actin, LL-37 ([9]; ref [9]): polymerize G-actin to F actin and bundle F-actin into actin bundles | cross-linking site of LL-37 on actin [10]: preferentially cross-linked to Gln-49 | disassembly of polycation induced actin bundles by DNase1 and cofilin [11]: DNase1 and cofilin disassemble LL-37 and lysozyme -induced actin bundles | extent of cross-link formation with F-actin vs G-actin [2, 14]: significantly less than with G-actin | cross-linking of LL-37 to actin by TGase [12, 25]: can be cross-linked to actin by TGase | binding site on actin [12]: binds preferentially to the D-loop of actin | effect of 200 mM NaCl on extent of cross-linking by LL-37 [13]: did not affect the extent of cross-linking

lysozyme: positively charged protein that interacts with actin
polymerization and bundling of actin, lysozyme ([9]; ref [8]): polymerize G-actin to F actin and bundle F-actin into actin bundles
